Measurements published in ChEMBL document CHEMBL1123931, “N10-substituted 5,8-dideazafolate inhibitors of glycinamide ribonucleotide transformylase” (J Med Chem, 1987).

These molecules were tested against T1, Trifunctional purine biosynthetic protein adenosine-3 (Mus musculus, UniProt Q64737) (assay: Inhibition of GAR transformylase isolated from the murine lymphoma cell line L5178Y).
T1 sequence (Q64737 whole entry): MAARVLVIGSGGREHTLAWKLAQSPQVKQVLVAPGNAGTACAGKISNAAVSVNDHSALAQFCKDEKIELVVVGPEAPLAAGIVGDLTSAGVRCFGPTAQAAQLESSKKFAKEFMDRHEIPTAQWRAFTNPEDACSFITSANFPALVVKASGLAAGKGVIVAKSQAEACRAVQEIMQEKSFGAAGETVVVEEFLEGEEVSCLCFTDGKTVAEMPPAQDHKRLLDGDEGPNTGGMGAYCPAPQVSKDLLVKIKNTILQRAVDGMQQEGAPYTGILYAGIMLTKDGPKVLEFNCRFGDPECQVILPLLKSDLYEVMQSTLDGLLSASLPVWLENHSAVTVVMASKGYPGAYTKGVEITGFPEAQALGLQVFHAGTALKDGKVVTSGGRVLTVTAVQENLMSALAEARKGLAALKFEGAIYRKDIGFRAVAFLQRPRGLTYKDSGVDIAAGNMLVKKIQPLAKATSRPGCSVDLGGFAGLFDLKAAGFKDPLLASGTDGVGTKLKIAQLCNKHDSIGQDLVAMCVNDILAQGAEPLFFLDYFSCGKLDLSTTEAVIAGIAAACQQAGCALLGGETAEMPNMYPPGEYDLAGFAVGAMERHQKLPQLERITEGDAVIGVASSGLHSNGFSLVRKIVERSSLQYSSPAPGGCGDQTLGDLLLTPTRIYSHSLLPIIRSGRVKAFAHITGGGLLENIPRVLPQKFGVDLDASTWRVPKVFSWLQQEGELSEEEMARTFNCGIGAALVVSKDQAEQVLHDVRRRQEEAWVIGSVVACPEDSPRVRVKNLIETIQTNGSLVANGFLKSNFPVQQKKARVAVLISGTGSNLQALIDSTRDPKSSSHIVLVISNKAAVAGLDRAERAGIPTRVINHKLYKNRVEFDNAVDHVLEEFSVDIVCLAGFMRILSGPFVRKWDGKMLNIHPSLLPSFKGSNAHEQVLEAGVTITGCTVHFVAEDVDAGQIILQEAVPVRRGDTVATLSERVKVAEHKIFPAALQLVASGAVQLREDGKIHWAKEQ
Assay type: cell-free

| Compound | Ki [µM] |
| --- | --- |
| CCN(Cc1ccc2nc(N)nc(O)c2c1)c1ccc(C(=O)NC(CCC(=O)O)C(=O)O)cc1 (configuration not stated) | 16 |

Each molecule was assayed against T1, Trifunctional purine biosynthetic protein adenosine-3 (assay: Inhibition of GAR transformylase isolated from murine lymphoma cell line L5178Y).
Assay type: cell-free

| Compound | Ki [µM] |
| --- | --- |
| Nc1nc2ccc(CN(Cc3cccc(F)c3)c3ccc(C(=O)NC(CCC(=O)O)C(=O)O)cc3)cc2c(=O)[nH]1 (configuration not stated) | 18 |
| N#CCCCN(Cc1ccc2nc(N)nc(O)c2c1)c1ccc(C(=O)NC(CCC(=O)O)C(=O)O)cc1 (configuration not stated) | 11 |
| Nc1nc2ccc(CN(CC3CC3)c3ccc(C(=O)NC(CCC(=O)O)C(=O)O)cc3)cc2c(=O)[nH]1 (configuration not stated) | 8 |
| Nc1nc2ccc(CN(CCC(=O)O)c3ccc(C(=O)NC(CCC(=O)O)C(=O)O)cc3)cc2c(=O)[nH]1 (configuration not stated) | 32 |
| Nc1nc2ccc(CN(Cc3c[nH]c(=O)[nH]c3=O)c3ccc(C(=O)NC(CCC(=O)O)C(=O)O)cc3)cc2c(=O)[nH]1 (configuration not stated) | 7 |
| CC(C)N(Cc1ccc2nc(N)nc(O)c2c1)c1ccc(C(=O)NC(CCC(=O)O)C(=O)O)cc1 (configuration not stated) | 19 |

Now from value to molecule:

| Ki [µM] | Compound |
| --- | --- |
| 2 | Nc1nc(O)c2cc(CNc3ccc(C(=O)NC(CCC(=O)O)C(=O)O)cc3)ccc2n1 (configuration not stated) [DIDEAZAFOLATE] |
| 3 | Nc1nc(O)c2cc(CN(CC(=O)c3ccccc3)c3ccc(C(=O)NC(CCC(=O)O)C(=O)O)cc3)ccc2n1 (configuration not stated) |
| 1.3 | CC(=O)N(Cc1ccc2nc(N)[nH]c(=O)c2c1)c1ccc(C(=O)NC(CCC(=O)O)C(=O)O)cc1 (configuration not stated) |
| 5 | Nc1nc2ccc(CN(CC(=O)O)c3ccc(C(=O)NC(CCC(=O)O)C(=O)O)cc3)cc2c(=O)[nH]1 (configuration not stated) |
| 6 | C#CCN(Cc1ccc2[nH]c(N)nc(=O)c2c1)c1ccc(C(=O)NC(CCC(=O)O)C(=O)O)cc1 (configuration not stated) |
